One assay addresses T1, Caspase-3 (Homo sapiens, UniProt P42574).
T1 sequence (P42574 whole entry): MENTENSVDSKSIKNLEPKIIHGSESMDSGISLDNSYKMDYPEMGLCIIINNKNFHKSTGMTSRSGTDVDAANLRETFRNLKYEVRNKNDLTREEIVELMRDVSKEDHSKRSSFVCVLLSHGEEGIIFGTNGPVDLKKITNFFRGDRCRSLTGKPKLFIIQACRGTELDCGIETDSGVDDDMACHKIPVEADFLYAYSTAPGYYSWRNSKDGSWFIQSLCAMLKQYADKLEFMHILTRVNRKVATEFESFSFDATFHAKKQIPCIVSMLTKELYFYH
In kind it is functional.

Assay [1] has as its target T2, Sentrin-specific protease 6 (Homo sapiens, UniProt Q9GZR1).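 Also: Luminescence-based dose-response confirmatory assay of SENP6 inhibition, following up an ultra-high-throughput screen.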
T2 sequence (Q9GZR1 whole entry): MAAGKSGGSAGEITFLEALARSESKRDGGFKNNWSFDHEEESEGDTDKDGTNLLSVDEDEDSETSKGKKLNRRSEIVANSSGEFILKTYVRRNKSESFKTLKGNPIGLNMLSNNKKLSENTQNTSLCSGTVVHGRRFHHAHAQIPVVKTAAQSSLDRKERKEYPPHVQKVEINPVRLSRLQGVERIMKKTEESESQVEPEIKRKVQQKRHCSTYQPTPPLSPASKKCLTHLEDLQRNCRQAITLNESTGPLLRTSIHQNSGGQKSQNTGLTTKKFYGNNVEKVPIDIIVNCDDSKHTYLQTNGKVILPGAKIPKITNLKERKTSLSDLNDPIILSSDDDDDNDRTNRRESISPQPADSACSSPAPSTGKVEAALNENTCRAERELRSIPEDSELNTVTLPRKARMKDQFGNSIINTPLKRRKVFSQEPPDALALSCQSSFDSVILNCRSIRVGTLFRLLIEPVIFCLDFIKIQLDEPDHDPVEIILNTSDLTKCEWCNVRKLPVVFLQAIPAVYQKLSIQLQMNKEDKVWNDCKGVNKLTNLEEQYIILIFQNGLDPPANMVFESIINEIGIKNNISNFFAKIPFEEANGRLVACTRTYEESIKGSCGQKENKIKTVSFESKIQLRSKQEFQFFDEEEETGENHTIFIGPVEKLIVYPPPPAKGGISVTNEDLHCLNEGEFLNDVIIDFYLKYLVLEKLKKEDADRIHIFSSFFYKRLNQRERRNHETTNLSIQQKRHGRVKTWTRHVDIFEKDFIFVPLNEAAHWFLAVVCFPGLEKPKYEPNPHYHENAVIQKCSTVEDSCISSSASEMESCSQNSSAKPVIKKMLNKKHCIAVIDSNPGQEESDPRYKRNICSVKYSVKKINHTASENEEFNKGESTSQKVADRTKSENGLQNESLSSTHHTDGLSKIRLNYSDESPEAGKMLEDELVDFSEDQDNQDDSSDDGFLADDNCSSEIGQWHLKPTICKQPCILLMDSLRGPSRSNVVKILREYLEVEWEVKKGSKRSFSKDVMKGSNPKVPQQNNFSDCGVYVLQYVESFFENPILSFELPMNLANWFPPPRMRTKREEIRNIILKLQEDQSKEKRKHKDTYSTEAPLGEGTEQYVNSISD
In kind it is functional.

The target of assay [2] is T3, Sentrin-specific protease 8 (Homo sapiens, UniProt Q96LD8).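 Also: luminescence read-out of SENP8 inhibition, dose-response confirmation following an ultra-high-throughput screen.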
T3 sequence (Q96LD8 whole entry): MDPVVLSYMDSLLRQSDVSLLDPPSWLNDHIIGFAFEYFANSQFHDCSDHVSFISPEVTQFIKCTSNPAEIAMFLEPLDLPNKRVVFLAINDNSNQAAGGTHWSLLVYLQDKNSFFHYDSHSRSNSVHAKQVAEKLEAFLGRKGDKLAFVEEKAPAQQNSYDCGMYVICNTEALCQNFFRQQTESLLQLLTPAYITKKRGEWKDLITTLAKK
In kind it is functional.

The target of assay [3] is T4, Sentrin-specific protease 7 (Homo sapiens, UniProt Q9BQF6).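 Also: Luminescence-based dose-response confirmation of ultra-high-throughput screening hits, measuring inhibition of SENP7.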
T4 sequence (Q9BQF6 whole entry): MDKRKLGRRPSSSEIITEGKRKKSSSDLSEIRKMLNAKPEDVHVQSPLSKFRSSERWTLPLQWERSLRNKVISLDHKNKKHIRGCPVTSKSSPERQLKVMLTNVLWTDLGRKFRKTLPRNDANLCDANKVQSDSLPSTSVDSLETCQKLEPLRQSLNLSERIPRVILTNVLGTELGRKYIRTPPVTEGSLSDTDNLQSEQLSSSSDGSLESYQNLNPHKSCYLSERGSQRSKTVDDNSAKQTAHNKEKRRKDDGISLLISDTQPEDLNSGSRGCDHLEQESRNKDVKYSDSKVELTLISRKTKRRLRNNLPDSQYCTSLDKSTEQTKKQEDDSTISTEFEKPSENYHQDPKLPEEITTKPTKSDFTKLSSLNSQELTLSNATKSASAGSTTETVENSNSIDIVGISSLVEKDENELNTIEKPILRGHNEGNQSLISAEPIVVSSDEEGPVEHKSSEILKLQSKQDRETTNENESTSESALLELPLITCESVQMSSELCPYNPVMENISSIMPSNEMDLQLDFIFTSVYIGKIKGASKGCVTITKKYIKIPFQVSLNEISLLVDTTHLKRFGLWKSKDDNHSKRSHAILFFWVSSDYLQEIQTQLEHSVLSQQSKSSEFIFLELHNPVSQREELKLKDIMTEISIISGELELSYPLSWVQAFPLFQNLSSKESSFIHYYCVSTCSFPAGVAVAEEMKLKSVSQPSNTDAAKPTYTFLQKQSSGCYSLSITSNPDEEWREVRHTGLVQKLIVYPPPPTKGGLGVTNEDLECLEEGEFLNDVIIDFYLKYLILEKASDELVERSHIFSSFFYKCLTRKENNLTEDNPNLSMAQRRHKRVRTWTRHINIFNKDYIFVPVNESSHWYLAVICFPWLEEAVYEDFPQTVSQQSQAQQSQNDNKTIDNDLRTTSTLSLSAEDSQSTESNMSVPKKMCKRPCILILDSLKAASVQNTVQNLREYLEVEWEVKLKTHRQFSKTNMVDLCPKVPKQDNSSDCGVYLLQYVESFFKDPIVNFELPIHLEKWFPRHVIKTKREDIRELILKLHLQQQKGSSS
Format: functional.

The target of assay [4] is T5, Ubiquitin-conjugating enzyme E2 N (Homo sapiens, UniProt P61088).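 Also: Dose-response confirmation in a TR-FRET assay detecting UBC13-driven polyubiquitin chain formation, inhibition measured.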
T5 sequence (P61088 whole entry): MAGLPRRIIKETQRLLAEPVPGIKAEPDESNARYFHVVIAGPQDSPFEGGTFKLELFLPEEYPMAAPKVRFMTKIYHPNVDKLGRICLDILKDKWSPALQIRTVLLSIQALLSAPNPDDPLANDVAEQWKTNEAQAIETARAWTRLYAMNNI
Format: functional.

The next assay has as its target Nonstructural protein 1 (Influenza A virus, UniProt Q194T2). In kind it is functional, Influenza A virus (A/California/07/2009(H1N1)).
The subject of a further assay is INS1. Nature of the assay: beta cell apoptosis inhibitors, cytokine rescue, dose response, luminescence, retest (AID 449756).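 Also: cell death triggered by IL-1 beta plus TNF-alpha plus IFN-gamma mixture; protective hits raise ATP signal compared with cytokine alone wells.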 The following applies: Rattus norvegicus. Format: functional, cell-based.
The subject of assay [5] is Vero. Put plainly: cells. Format: functional, cell-based. Particulars: Chlorocebus sabaeus.
The target of assay [6] is FAD-linked sulfhydryl oxidase ALR (Homo sapiens, UniProt P55789). Nature of the assay: inhibitors of human ALR sulfhydryl oxidase, dose response, biochemical, H2O2 detection, luminescence, cherry-pick (AID 493248).
Chain of FAD-linked sulfhydryl oxidase ALR (P55789 whole entry): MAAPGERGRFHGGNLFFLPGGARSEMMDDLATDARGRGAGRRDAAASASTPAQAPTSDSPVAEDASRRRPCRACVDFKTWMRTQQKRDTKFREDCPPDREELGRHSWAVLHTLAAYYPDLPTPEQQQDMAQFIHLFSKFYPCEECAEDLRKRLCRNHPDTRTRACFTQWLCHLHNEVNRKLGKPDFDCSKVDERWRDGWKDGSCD
Assay [7] can be described thus: microbe, parasite or virus in culture. In kind it is functional. Particulars: Mycobacterium tuberculosis.
Assay [8] deals with Vero. Nature of the assay: cells. Format: functional. The following applies: Chlorocebus sabaeus.
The nature of assay [9]: Luminescence Cell-Based Dose Retest to Confirm Inhibitors of Cancer Stem Cells. [Related pubchem assays (depositor defined):AID2717, AID2721]. Format: functional. Particulars: Homo sapiens.
The target of another assay is T6, Coagulation factor XII (Homo sapiens, UniProt P00748).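 Also: activated factor XIIa alpha cleaving a fluorogenic AMC peptide substrate; inhibitor potency from loss of enzyme activity.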
T6 sequence (P00748 whole entry): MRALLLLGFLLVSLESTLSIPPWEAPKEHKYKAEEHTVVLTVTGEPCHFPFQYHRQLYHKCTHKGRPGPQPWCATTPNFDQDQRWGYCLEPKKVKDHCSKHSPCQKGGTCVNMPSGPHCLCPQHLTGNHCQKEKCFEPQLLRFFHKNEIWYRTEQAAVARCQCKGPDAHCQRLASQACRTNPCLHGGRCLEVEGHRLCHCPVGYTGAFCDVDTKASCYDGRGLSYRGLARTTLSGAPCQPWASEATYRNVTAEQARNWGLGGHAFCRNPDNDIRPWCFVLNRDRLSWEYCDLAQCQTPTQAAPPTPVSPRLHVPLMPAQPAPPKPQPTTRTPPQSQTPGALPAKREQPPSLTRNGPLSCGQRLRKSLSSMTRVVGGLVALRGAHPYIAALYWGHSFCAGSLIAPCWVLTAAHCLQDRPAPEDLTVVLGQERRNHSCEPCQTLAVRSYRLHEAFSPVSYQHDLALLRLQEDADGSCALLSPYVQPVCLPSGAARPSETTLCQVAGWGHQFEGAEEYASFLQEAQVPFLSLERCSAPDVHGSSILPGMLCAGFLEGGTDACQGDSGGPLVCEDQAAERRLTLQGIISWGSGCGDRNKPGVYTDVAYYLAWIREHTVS
In kind it is functional.

Assay [10] in a line: cytotoxicity toward DRD oncogenic fibroblasts, dose response, cell-based, non-viral oncogenic, luminescence (AID 1934). Format: functional. Particulars: Homo sapiens.
Assay [11] relates to BJ. Nature of the assay: cells. In kind it is functional, cell-based. The following applies: Homo sapiens.
Assay [12] concerns BJ. Nature of the assay: cytotoxicity toward BJ-TERT fibroblasts, dose response, cell-based, RAS-independent, luminescence (AID 1933). Format: functional. Particulars: Homo sapiens.
Assay [13] can be described thus: Luminescence Cell-Based Dose Response HTS to Identify Activators of Luciferase Translation or Activity in H4 […] Cells. [Related pubchem assays: 1829 (Project Summary), 1814 (Primary HTS)]. In kind it is functional.
Assay [14] concerns BJ. Put plainly: cytotoxicity toward BJ-TERT-LT-ST fibroblasts, dose response, cell-based, RAS-independent, luminescence (AID 1935).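 Also: BJ fibroblasts immortalized with TERT plus LT and ST oncogenes.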 Format: functional. Particulars: Homo sapiens.
The test system of the next assay is H4. Nature of the assay: Luminescence Cell-Based Dose Response HTS to Identify Activators of 5'UTR Stem-Loop Driven Prion Protein mRNA Translation in H4 Neuroglioblastoma Cells. [Related pubchem assays: 1829 (Project Summary), 1814 (Primary HTS)]. Format: functional. Particulars: Homo sapiens.
A further assay has as its target Cytochrome P450 2C19 (Homo sapiens, UniProt P33261). Nature of the assay: Cytochrome panel assay with activity outcomes. Panel member name: p450-cyp2c19 Compounds with AC50 equal or less than 10 uM are considered active. Format: functional. The following applies: read-out: AC50.
Another assay addresses Cytochrome P450 2D6 (Homo sapiens, UniProt P10635).

The source made the active and inactive calls.

Chain of Nonstructural protein 1 (Q194T2 whole entry): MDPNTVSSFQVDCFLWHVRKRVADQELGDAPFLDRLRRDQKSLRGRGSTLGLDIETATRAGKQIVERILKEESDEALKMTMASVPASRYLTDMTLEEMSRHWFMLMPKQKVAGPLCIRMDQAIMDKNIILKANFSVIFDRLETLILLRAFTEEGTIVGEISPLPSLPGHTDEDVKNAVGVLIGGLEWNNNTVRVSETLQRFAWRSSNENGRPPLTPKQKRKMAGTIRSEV
Chain of Cytochrome P450 2C19 (P33261 whole entry): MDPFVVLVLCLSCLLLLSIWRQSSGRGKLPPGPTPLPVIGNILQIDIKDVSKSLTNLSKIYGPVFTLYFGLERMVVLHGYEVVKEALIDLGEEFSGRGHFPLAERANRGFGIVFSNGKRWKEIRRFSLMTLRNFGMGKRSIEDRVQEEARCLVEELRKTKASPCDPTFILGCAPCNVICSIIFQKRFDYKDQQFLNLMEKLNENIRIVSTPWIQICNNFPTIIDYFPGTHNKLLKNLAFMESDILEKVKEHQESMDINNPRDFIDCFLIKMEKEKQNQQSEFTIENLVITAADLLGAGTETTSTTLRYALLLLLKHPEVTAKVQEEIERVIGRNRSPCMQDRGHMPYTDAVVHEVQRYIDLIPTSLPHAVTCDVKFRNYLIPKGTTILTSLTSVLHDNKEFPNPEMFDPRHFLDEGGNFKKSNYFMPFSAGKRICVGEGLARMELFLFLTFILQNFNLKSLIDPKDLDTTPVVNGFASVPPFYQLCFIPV
Chain of Cytochrome P450 2D6 (P10635 whole entry): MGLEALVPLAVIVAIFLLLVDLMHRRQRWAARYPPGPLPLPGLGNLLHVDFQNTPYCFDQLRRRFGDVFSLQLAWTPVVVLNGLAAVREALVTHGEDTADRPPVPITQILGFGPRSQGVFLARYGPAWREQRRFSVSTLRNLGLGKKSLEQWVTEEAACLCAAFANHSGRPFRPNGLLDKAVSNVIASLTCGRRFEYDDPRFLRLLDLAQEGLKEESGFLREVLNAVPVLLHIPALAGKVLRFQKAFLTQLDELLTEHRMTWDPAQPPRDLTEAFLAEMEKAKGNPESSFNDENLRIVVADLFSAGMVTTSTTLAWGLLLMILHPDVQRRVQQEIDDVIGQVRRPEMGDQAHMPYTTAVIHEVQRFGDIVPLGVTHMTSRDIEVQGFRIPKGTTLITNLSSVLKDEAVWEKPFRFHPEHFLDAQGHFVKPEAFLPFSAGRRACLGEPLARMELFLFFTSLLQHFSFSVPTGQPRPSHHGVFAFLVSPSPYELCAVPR

As for `O=C(Nc1cccc(Cl)c1)Nc1ccccc1C(=O)NCc1ccco1`, the IC50 on Caspase-3 is 21.4 µM (active); in assay [1], 4.44 µM (active); in assay [2] it was > 100 µM (inactive); in assay [3], 4.05 µM (active).
In the case of `C/C(=N\OC(=O)c1ccc(Cl)cc1)c1nccs1`, the IC50 at Caspase-3 was 15.1 µM (active); in assay [1], 11.7 µM (active); in assay [2] it was 19.2 µM (active); in assay [3] it was 2.63 µM (active).
As to `Cc1ccc(CNC(=O)CSc2nc3ccsc3c(=O)n2Cc2ccc(C(=O)O)cc2)cc1`, the IC50 in assay [4] was > 20 µM (inactive).
Take `Oc1ccc(C=NNC(=S)Nc2cccnc2)nc1`: the 50% inhibitory concentration (IC50) on Nonstructural protein 1 was 0.992 µM (active).
Consider `Cc1ccc2ccc3cccnc3c2n1`, for which the IC50 at Nonstructural protein 1 is 14.5 µM (active). The AC50 in the assay with INS1 was 0.865 µM (active).
Turning to `CCOC(=O)c1ccc(NC(=O)c2[nH]cnc2C(=O)NC2CCN(C(=O)OC(C)(C)C)CC2)cc1`, in assay [4], the IC50 is > 20 µM (inactive).
With `O=C(/C=C/c1ccccc1)n1cnnc1SC/C=C/c1ccccc1`, the IC50 at Caspase-3 is 37.3 µM (active); in assay [1] it was 15.2 µM (active); in assay [2], 25.6 µM (active); in assay [3], 8.8 µM (active).
As for `Nc1nc(C2CC2)c(Sc2sc(N)nc2C2CC2)s1`, the IC50 with Vero [5] was > 25 µM (active). Moreover, the AC50 in assay [6] is 0.511 µM (active).
As for `CCn1c(C)nc2cc(C(=O)OC(C(F)(F)C(F)F)C(F)(F)C(F)F)ccc21`, the CC50 was > 40 µM (active) in assay [7] and > 25 µM (active) in the assay with Vero [8]. Also, the IC50 in the assay with Vero [5] was 24.4 µM (active).
Consider `CCCCCc1cc(=O)oc2c(C(CCN(CC)CC)c3cc(OC)c(OC)c(OC)c3)c(OC)cc(OC)c12` (stereo not given), for which, in [4], the IC50 was > 20 µM (inactive). Moreover, in [9], the AC50 was 7.71 µM (active).
With `CCOc1ccc(C(C(=O)NCC2CCCO2)N(C(=O)c2snc(C(N)=O)c2N)c2ccc3c(c2)OCCO3)cc1` (stereo not given), the IC50 in assay [4] is > 20 µM (inactive).
As for `O=C(NCCCN1CCCC1)c1ccc2c(Cl)c3c(nc2c1)CCCC3`, the IC50 is > 50 µM (inconclusive) at Coagulation factor XII and > 25 µM (active) with Vero [5]. Also, in the assay on Vero [8], the CC50 was > 25 µM (active). The AC50 in assay [6] is 0.01 µM (active).
`CCOC(=O)Nc1ccc2nc(N3CCCCCC3)sc2c1`: the EC50 is 4.7 µM (inconclusive) in assay [10]; 111 µM (active) in the assay on BJ [11]; 10.3 µM (inconclusive) in the assay on BJ [12]; 0.153 µM (active) in assay [13]; 55.5 µM (inconclusive) with BJ [14]; > 120 µM (not active) with H4. In addition, the IC50 on Caspase-3 was 31.1 µM (active); in [1] it was 33.1 µM (active); in assay [2], 9.44 µM (active); in [3], 10.5 µM (active).
`O=[N+]([O-])c1cccc(-c2cn3c([n+]2-c2ccccc2)SCC3)c1`: the IC50 in the assay with Vero [5] was 5.3 µM (active).
On to `Cc1sc(N/N=C/c2cccnc2)nc1-c1ccccc1`, for which the AC50 at Cytochrome P450 2C19 was 0.501 µM (inconclusive); at Cytochrome P450 2D6 it was 0.794 µM (inconclusive). In the assay with Vero [8], the CC50 is > 25 µM (active). The IC50 with Vero [5] was > 25 µM (active).
Turning to `COc1ccc(C2C3=C(CC(C)(C)CC3=O)Oc3ncn(Cc4ccco4)c(=N)c32)cc1` (stereo not given), the IC50 at Nonstructural protein 1 is > 100 µM (active).

The record behind these values is ChEMBL document CHEMBL1201862, “PubChem BioAssay data set” (2004).
